Molecules are shown by their SMILES.

The target in the assay is T1, human full-length MKNK1 (Homo sapiens, UniProt Q9BUB5, T385D).
T1 construct: purchased Carna Biosciences 02-145; host or cells: insect cells, baculovirus expression system
T1 sequence (Q9BUB5 1-424 isoform Q9BUB5-2 T344D): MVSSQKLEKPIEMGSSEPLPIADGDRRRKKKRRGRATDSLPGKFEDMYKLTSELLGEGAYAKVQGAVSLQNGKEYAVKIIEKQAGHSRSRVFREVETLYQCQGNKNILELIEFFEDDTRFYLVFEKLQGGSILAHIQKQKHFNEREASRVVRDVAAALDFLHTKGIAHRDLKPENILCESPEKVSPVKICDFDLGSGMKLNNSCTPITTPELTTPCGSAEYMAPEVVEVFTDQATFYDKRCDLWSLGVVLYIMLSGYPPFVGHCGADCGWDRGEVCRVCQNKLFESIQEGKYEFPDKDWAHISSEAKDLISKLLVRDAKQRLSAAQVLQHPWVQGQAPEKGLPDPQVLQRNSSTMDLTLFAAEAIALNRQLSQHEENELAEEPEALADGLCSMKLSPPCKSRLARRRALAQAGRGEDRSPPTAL
The assay is described as follows: MKNK1 kinase high ATP assay (TR-FRET). Type of assay: biochemical. Conditions: high ATP (2 mM), 15 min preincubation with enzyme, GST-MKNK1 (T344D). The procedure:
MKNK1-inhibitory activity at high ATP of compounds of the present invention after their preincubation with MKNK1 was quantified employing the TR-FRET-based MKNK1 high ATP assay as described in the following paragraphs.
A recombinant fusion protein of Glutathione-S-Transferase (GST, N-terminally) and human full-length MKNK1 (amino acids 1-424 and T344D of accession number BAA 19885.1), expressed in insect cells using baculovirus expression system and purified via glutathione sepharose affinity chromatography, was purchased from Carna Biosciences (product no 02-145) and used as enzyme. As substrate for the kinase reaction the biotinylated peptide biotin-Ahx-IKKRKLTRRKSLKG (C-terminus in amide form) was used, which can be purchased e.g. from the company Biosyntan (Berlin-Buch, Germany).
For the assay 50 nL of a 100fold concentrated solution of the test compound in DMSO was pipetted into a black low volume 384well microtiter plate (Greiner Bio-One, Frickenhausen, Germany), 2 μL of a solution of MKNK1 in aqueous assay buffer [50 mM HEPES pH 7.5, 5 mM MgCl2, 1.0 mM dithiothreitol, 0.005% (v/v) Nonidet-P40 (Sigma)] was added and the mixture was incubated for 15 min at 22° C. to allow pre-binding of the test compounds to the enzyme before the start of the kinase reaction. Then the kinase reaction was started by the addition of 3 μL of a solution of adenosine-tri-phosphate (ATP, 3.3 mM=>final conc. in the 5 μL assay volume is 2 mM) and substrate (0.1 μM=>final conc. in the 5 μL assay volume is 0.06 μM) in assay buffer and the resulting mixture was incubated for a reaction time of 30 min at 22° C. The concentration of MKNK1 was adjusted depending of the activity of the enzyme lot and was chosen appropriate to have the assay in the linear range, typical concentrations were in the range of 0.003 μg/mL. The reaction was stopped by the addition of 5 μL of a solution of TR-FRET detection reagents (5 nM streptavidine-XL665 [Cisbio Bioassays, Codolet, France] and 1 nM anti-ribosomal protein […] (pSer236)-antibody from Invitrogen [#44921G] and 1 nM LANCE EU-W1024 labeled ProteinG [Perkin-Elmer, product no. AD0071]) in an aqueous EDTA-solution (100 mM EDTA, 0.1% (w/v) bovine serum albumin in 50 mM HEPES pH 7.5).
The resulting mixture was incubated for 1 h at 22° C. to allow the formation of complex between the phosphorylated biotinylated peptide and the detection reagents. Subsequently the amount of phosphorylated substrate was evaluated by measurement of the resonance energy transfer from the Eu-chelate to the streptavidine-XL. Therefore, the fluorescence emissions at 620 nm and 665 nm after excitation at 350 nm were measured in a TR-FRET reader, e.g. a Rubystar (BMG Labtechnologies, Offenburg, Germany) or a Viewlux (Perkin-Elmer). The ratio of the emissions at 665 nm and at […] was taken as the measure for the amount of phosphorylated substrate. The data were normalised (enzyme reaction without inhibitor=0% inhibition, all other assay components but no enzyme=100% inhibition).
On the technique in general: Time-resolved FRET reads energy transfer from a long-lived donor to a nearby acceptor.
A word on the IC50: it is the concentration that gives 50% inhibition. As to `c1nc(Nc2ccc3[nH]ncc3c2)c2c3c([nH]c2n1)CCCC3` [Example 2, N-(1H-Indazol-5-yl)-6,7,8,9-tetrahydro-5H-pyrimido[4,5-b]indol-4-amine], the IC50 came out at 0.027 µM.
Compound `COc1cc(F)c(Cl)cc1Nc1ncnc2[nH]c3c(c12)CC(C(=O)NCCCS(C)(=O)=O)CC3` (racemic) [Example 157, (RS)-4-[(5-Chloro-4-fluoro-2-methoxyphenyl)amino]-N-[3-(methylsulfonyl)propyl]-6,7,8,9-tetrahydro-5H-pyrimido[4,5-b]indole-6-carboxamide] returned an IC50 of 0.444 µM.
Compound `CCOC(=O)C1CCc2[nH]c3ncnc(Nc4ccc(Cl)c(Cl)c4)c3c2C1` (racemic) [Example 178, (RS)-Ethyl 4-[(3,4-dichlorophenyl)amino]-6,7,8,9-tetrahydro-5H-pyrimido[4,5-b]indole-6-carboxylate] registered an IC50 of 0.215 µM.
Take `CNS(=O)(=O)c1ccc(Nc2ncnc3[nH]c4c(c23)CC(C(=O)NCCCS(C)(=O)=O)CC4)cc1` (racemic) [Example 41, (RS)-4-{[4-(Methylsulfamoyl)phenyl]amino}-N-[3-(methylsulfonyl)propyl]-6,7,8,9-tetrahydro-5H-pyrimido[4,5-b]indole-6-carboxamide]: 9.33 µM corresponded to half-maximal inhibition (IC50).
For `O=C(O)C1CCc2[nH]c3ncnc(Nc4ccccc4N4CCOCC4)c3c2C1` (racemic) [Example 186, (RS)-4-{[2-(Morpholin-4-yl)phenyl]amino}-6,7,8,9-tetrahydro-5H-pyrimido[4,5-b]indole-6-carboxylic acid], the IC50 is 0.911 µM.
As for `O=C(O)C1CCc2[nH]c3ncnc(N4CCc5ccccc54)c3c2C1` (racemic) [Example 185, (RS)-4-(2,3-Dihydro-1H-indol-1-yl)-6,7,8,9-tetrahydro-5H-pyrimido[4,5-b]indole-6-carboxylic acid], the 50% inhibitory concentration (IC50) was 8.99 µM.
Compound `COCC1(OC)CCc2[nH]c3ncnc(Nc4ccc5[nH]c(=O)sc5c4)c3c2C1` (racemic) [Example 138] showed a concentration for half-maximal inhibition (IC50) of 0.358 µM.
The value for `CC(C)Oc1cc(F)ccc1Nc1ncnc2[nH]c3c(c12)C[S+]([O-])CC3` (racemic) [Example 86, (RS)—N-(4-Fluoro-2-isopropoxyphenyl)-5,7,8,9-tetrahydrothiopyrano[3′,4′:4,5]pyrrolo[2,3-d]pyrimidin-4-amine 6-oxide] was 0.22 µM; that for `CCOC(=O)C1CCc2[nH]c3ncnc(Nc4ccccc4N4CCOCC4)c3c2C1` (racemic) [Example 172, (RS)-Ethyl 4-{[2-(morpholin-4-yl)phenyl]amino}-6,7,8,9-tetrahydro-5H-pyrimido[4,5-b]indole-6-carboxylate] was 0.751 µM.
`COc1ccc(F)cc1Nc1ncnc2[nH]c3c(c12)CC(C(=O)NCCC(F)(F)F)CC3` (racemic) [Example 198, (RS)-4-[(5-Fluoro-2-methoxyphenyl)amino]-N-(3,3,3-trifluoropropyl)-6,7,8,9-tetrahydro-5H-pyrimido[4,5-b]indole-6-carboxamide] showed an IC50 of 0.249 µM.
Regarding `CCOC(=O)C1CCc2[nH]c3ncnc(Nc4ccc5[nH]ncc5c4)c3c2C1` (racemic) [Example 5, (RS)-Ethyl 4-(1H-indazol-5-ylamino)-6,7,8,9-tetrahydro-5H-pyrimido[4,5-b]indole-6-carboxylate], half-maximal inhibition (IC50) was put at 0.018 µM.
`CS(=O)(=O)CCCNC(=O)C1CCc2[nH]c3ncnc(Nc4ccccc4OCC(F)F)c3c2C1` (racemic) [Example 152, (RS)-4-{[2-(2,2-Difluoroethoxy)phenyl]amino}-N-[3-(methylsulfonyl)propyl]-6,7,8,9-tetrahydro-5H-pyrimido[4,5-b]indole-6-carboxamide] yielded an IC50 of 0.113 µM.
`O=c1[nH]c2cc(Cl)c(Nc3ncnc4[nH]c5c(c34)CCCC5)cc2s1` [Example 236, 5-Chloro-6-(6,7,8,9-tetrahydro-5H-pyrimido[4,5-b]indol-4-ylamino)-1,3-benzothiazol-2(3H)-one] came in with an IC50 of 0.055 µM.
The value for `CCOc1cc(Cl)ccc1Nc1ncnc2[nH]c3c(c12)CC(C(=O)NCCCS(C)(=O)=O)CC3` (racemic) [Example 165, (RS)-4-[(4-Chloro-2-ethoxyphenyl)amino]-N-[3-(methylsulfonyl)propyl]-6,7,8,9-tetrahydro-5H-pyrimido[4,5-b]indole-6-carboxamide] was 0.086 µM.
For `COc1ccc(Cl)cc1Sc1ncnc2[nH]c3c(c12)CC(C(=O)NCCCS(C)(=O)=O)CC3` (racemic) [Example 148, (RS)-4-[(5-Chloro-2-methoxyphenyl)sulfanyl]-N-[3-(methylsulfonyl)propyl]-6,7,8,9-tetrahydro-5H-pyrimido[4,5-b]indole-6-carboxamide], the IC50 is 1.73 µM.
The value for `Clc1ccc2c(c1)CCN2c1ncnc2[nH]c3c(c12)CCCC3` [Example 122] was 4.29 µM; that for `COc1ccc(F)cc1Nc1ncnc2[nH]c3c(c12)CCCC3` [Example 108] was 0.126 µM.
`CS(=O)(=O)CCCNC(=O)C1CCc2[nH]c3ncnc(Nc4ccccc4OC(F)F)c3c2C1` (racemic) [Example 154, (RS)-4-{[2-(Difluoromethoxy)phenyl]amino}-N-[3-(methylsulfonyl)propyl]-6,7,8,9-tetrahydro-5H-pyrimido[4,5-b]indole-6-carboxamide] displayed an IC50 of 0.469 µM.
Turning to `CS(=O)(=O)CCCNC(=O)C1CCc2[nH]c3ncnc(Nc4ccc5c(c4)COC5=O)c3c2C1` (racemic) [Example 45, (RS)—N-[3-(Methylsulfonyl)propyl]-4-[(1-oxo-1,3-dihydro-2-benzofuran-5-yl)amino]-6,7,8,9-tetrahydro-5H-pyrimido[4,5-b]indole-6-carboxamide], the IC50 was 0.082 µM.
The value for `CS(=O)(=O)CCCNC(=O)C1CCc2[nH]c3ncnc(Nc4ccccc4N4CCOCC4)c3c2C1` (racemic) [Example 30, (RS)—N-[3-(Methylsulfonyl)propyl]-4-{[2-(morpholin-4-yl)phenyl]amino}-6,7,8,9-tetrahydro-5H-pyrimido[4,5-b]indole-6-carboxamide] was 0.052 µM; that for `CC(C)Oc1cc(F)ccc1Nc1ncnc2[nH]c3c(c12)CS(=O)(=O)CC3` [Example 84, N-(4-Fluoro-2-isopropoxyphenyl)-5,7,8,9-tetrahydrothiopyrano[3′,4′:4,5]pyrrolo[2,3-d]pyrimidin-4-amine 6,6-dioxide] was 0.082 µM; that for `COc1cc2[nH]ncc2cc1Nc1ncnc2[nH]c3c(c12)CC(C(=O)NCCCS(C)(=O)=O)CC3` (racemic) [Example 163, (RS)-4-[(6-Methoxy-1H-indazol-5-yl)amino]-N-[3-(methylsulfonyl)propyl]-6,7,8,9-tetrahydro-5H-pyrimido[4,5-b]indole-6-carboxamide] was 0.004 µM.
`c1nc(Nc2ccc3[nH]ncc3c2)c2c3c([nH]c2n1)CCSC3` [Example 66, N-(1H-Indazol-5-yl)-5,7,8,9-tetrahydrothiopyrano[3′,4′:4,5]pyrrolo[2,3-d]pyrimidin-4-amine] displayed an IC50 of 0.043 µM.
Compound `CN1CCN(C(=O)C2CCc3[nH]c4ncnc(N5CCc6ccccc65)c4c3C2)CC1` (racemic) [Example 211, (RS)-[4-(2,3-Dihydro-1H-indol-1-yl)-6,7,8,9-tetrahydro-5H-pyrimido[4,5-b]indol-6-yl](4-methylpiperazin-1-yl)methanone] registered an IC50 of 3.41 µM.
The compound `CS(=O)(=O)CCCNC(=O)C1CCc2[nH]c3ncnc(Nc4ccc(Cl)c(Cl)c4)c3c2C1` (racemic) [Example 166, (RS)-4-[(3,4-Dichlorophenyl)amino]-N-[3-(methylsulfonyl)propyl]-6,7,8,9-tetrahydro-5H-pyrimido[4,5-b]indole-6-carboxamide] came in with an IC50 of 0.045 µM.
The value for `CS(=O)(=O)CCCNC(=O)C1CCc2[nH]c3ncnc(Nc4ccccc4OC4CCOCC4)c3c2C1` (racemic) [Example 79, (RS)—N-[3-(Methylsulfonyl)propyl]-4-{[2-(tetrahydro-2H-pyran-4-yloxy)phenyl]amino}-6,7,8,9-tetrahydro-5H-pyrimido[4,5-b]indole-6-carboxamide] was 0.058 µM.
